The source of these data is patent US9549932B2, “2-(morpholin-4-yl)-1,7-naphthyridines” (BAYER PHARMA AKTIENGESELLSCHAFT, priority 2014, dated 2017).

SMILES strings stand for the structures. pIC50: −log10 of the molar value.

Chain of full-length human ATR protein (Q13535 other isoform, or with tags, fused parts or gaps): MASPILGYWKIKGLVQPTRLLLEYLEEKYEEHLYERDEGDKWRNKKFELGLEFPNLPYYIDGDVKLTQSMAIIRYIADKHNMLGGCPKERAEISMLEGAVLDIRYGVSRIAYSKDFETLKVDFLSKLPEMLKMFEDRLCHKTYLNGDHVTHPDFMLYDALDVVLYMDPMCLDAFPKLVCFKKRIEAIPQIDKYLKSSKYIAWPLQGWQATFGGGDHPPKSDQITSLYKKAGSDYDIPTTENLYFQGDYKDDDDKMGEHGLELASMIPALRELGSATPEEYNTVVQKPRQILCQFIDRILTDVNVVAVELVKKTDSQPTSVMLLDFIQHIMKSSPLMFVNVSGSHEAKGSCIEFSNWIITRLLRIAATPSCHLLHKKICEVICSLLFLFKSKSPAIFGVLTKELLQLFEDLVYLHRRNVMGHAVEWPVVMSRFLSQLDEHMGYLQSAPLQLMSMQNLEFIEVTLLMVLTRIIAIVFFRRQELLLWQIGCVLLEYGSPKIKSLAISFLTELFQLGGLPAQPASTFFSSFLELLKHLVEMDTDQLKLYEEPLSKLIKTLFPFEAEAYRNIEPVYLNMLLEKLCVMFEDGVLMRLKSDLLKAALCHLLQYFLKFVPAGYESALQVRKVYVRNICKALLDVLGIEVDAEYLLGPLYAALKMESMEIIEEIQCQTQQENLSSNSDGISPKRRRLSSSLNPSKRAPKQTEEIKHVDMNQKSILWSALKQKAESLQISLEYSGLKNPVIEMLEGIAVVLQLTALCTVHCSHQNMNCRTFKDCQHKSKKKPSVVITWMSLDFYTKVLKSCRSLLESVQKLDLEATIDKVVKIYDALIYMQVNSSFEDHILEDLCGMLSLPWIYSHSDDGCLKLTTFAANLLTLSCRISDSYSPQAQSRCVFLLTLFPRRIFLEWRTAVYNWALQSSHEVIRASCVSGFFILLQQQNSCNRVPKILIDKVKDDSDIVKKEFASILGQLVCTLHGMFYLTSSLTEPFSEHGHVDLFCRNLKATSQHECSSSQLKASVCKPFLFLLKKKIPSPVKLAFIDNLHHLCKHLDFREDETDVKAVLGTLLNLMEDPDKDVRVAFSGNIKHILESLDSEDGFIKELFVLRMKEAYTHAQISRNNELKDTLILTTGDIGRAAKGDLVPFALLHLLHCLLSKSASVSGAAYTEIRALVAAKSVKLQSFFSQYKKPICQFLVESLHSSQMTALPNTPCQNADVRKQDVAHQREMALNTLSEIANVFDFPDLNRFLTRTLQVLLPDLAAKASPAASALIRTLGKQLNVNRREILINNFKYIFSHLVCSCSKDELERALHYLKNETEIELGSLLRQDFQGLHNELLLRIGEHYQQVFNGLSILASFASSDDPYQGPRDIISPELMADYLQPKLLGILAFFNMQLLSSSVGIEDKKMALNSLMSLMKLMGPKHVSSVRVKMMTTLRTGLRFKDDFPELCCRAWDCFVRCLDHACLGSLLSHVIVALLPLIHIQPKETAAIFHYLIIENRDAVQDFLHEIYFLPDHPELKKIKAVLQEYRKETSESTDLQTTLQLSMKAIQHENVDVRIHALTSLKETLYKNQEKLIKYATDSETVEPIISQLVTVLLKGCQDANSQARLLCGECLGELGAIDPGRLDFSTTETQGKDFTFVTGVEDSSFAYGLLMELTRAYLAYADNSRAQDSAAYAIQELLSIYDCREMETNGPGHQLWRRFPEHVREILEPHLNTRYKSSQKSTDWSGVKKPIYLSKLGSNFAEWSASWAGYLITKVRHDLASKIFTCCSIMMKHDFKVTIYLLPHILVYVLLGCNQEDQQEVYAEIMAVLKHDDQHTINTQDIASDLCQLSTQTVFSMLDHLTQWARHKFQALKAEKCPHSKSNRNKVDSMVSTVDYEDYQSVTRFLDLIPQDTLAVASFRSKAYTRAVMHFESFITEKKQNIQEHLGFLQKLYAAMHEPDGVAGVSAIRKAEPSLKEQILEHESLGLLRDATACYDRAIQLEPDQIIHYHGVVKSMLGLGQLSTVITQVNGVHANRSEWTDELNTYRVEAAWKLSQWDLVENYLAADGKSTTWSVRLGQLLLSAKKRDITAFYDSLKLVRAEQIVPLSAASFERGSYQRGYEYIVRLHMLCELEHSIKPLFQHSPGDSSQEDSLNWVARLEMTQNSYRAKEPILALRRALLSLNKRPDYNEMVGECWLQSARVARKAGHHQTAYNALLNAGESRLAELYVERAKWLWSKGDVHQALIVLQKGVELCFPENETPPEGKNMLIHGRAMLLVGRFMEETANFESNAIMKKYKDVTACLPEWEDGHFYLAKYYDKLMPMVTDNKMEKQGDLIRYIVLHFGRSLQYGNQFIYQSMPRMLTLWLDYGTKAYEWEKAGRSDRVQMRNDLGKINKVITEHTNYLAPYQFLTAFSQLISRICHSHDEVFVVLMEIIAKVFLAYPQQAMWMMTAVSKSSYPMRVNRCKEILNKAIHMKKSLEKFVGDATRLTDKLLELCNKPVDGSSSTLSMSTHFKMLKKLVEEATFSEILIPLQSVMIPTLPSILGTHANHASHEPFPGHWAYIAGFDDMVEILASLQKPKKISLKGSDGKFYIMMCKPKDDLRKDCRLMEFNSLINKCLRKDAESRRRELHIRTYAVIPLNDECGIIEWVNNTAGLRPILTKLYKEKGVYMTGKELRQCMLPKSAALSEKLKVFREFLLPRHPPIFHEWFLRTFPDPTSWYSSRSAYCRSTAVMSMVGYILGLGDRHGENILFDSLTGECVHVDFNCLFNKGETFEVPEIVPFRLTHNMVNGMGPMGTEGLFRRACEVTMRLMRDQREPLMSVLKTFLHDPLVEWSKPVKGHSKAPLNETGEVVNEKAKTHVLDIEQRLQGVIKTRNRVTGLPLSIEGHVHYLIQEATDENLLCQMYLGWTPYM
Chain of full-length human ATR protein (Q8WXE1 other isoform, or with tags, fused parts or gaps partner): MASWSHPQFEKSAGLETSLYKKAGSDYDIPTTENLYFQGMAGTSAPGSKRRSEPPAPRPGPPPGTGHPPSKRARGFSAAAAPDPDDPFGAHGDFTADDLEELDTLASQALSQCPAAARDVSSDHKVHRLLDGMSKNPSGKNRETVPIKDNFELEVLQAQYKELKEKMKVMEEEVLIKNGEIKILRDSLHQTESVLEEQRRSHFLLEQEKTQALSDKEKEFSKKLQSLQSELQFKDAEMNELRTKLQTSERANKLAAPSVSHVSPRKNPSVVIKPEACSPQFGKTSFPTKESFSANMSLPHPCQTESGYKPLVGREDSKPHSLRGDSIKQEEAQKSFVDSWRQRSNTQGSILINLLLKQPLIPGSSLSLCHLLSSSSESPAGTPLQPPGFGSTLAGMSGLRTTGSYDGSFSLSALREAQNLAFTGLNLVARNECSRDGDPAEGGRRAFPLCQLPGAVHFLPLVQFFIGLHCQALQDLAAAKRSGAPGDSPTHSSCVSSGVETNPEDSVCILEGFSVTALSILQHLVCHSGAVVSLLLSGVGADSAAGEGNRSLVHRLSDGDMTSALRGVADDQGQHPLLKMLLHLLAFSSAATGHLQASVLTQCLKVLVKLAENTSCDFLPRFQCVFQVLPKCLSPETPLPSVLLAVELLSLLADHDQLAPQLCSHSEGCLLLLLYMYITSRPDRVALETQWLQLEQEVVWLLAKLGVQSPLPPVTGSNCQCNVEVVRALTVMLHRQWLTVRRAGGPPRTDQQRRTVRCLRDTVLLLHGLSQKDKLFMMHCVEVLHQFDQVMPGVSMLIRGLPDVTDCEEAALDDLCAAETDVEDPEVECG

This test has as its target full-length human ATR protein (Homo sapiens (Human), UniProt Q13535). As to the kind of experiment: Binding assay ATR (TR-FRET tracer displacement). Conditions: tracer A, TR-FRET; read-out: ATR binding (tracer A) IC50. Put shortly: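 Full-length human GST-ATR co-purified with ATRIP, pre-complexed 30 min at 22 °C with anti-GST-Tb antibody, then pre-bound with compound 10 min. Tracer A or B added (2 µl of 100 nM solution), 30 min at 22 °C.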
In general terms: TR-FRET usually uses a lanthanide donor and a delayed reading to cut background.
As a reminder, the pIC50 is the IC50 on a negative log10 scale, so that one unit is a factor of ten. Consider `C[C@@H]1COCCN1c1cc(C2=CCN(C)CC2)c2ccnc(-c3ccn[nH]3)c2n1` [Example 243, 2-[(3R)-3-methylmorpholin-4-yl]-4-(1-methyl-1,2,3,6-tetrahydropyridin-4-yl)-8-(1H-pyrazol-5-yl)-1,7-naphthyridine], for which the pIC50 was 7.44. The figure for `C[C@@H]1COCCN1c1cc(C2CCCN(C)C2)c2ccnc(-c3ccn[nH]3)c2n1` (stereo partly drawn) [Example 244, 2-[(3R)-3-methylmorpholin-4-yl]-4-[1-methylpiperidin-3-yl]-8-(1H-pyrazol-5-yl)-1,7-naphthyridine] is 6.80; for `C[C@@H]1COCCN1c1cc(C2=CCNCC2)c2ccnc(-c3ccn[nH]3)c2n1` [Example 245, 2-[(3R)-3-methylmorpholin-4-yl]-8-(1H-pyrazol-5-yl)-4-(1,2,3,6-tetrahydropyridin-4-yl)-1,7-naphthyridine] it is 7.49. For `C[C@@H]1COCCN1c1cc(-c2ccn(C3CCOCC3)n2)c2ccnc(-c3ccn[nH]3)c2n1` [Example 246, 2-[(3R)-3-methylmorpholin-4-yl]-8-(1H-pyrazol-5-yl)-4-[1-(tetrahydro-2H-pyran-4-yl)-1H-pyrazol-3-yl]-1,7-naphthyridine], the pIC50 is 7.17.

With `C[C@@H]1COCCN1c1cc(-c2cnc(F)cc2F)c2ccnc(-c3ccn[nH]3)c2n1` [Example 247, 4-(4,6-difluoropyridin-3-yl)-2-[(3R)-3-methylmorpholin-4-yl]-8-(1H-pyrazol-5-yl)-1,7-naphthyridine], the pIC50 is 7.67. On to `C[C@@H]1COCCN1c1cc(-c2cnn(C)c2)c2ccnc(-c3ccn[nH]3)c2n1` [Example 248, 2-[(3R)-3-methylmorpholin-4-yl]-4-(1-methyl-1H-pyrazol-4-yl)-8-(1H-pyrazol-5-yl)-1,7-naphthyridine], for which the pIC50 is 7.62. On to `Cc1nn(C)cc1-c1cc(N2CCOC[C@H]2C)nc2c(-c3ccn[nH]3)nccc12` [Example 249, 4-(1,3-dimethyl-1H-pyrazol-4-yl)-2-[(3R)-3-methylmorpholin-4-yl]-8-(1H-pyrazol-5-yl)-1,7-naphthyridine], for which the pIC50 was 7.86. With `Cc1c(-c2cc(N3CCOC[C@H]3C)nc3c(-c4ccn[nH]4)nccc23)cnn1C` [Example 250, 4-(1,5-dimethyl-1H-pyrazol-4-yl)-2-[(3R)-3-methylmorpholin-4-yl]-8-(1H-pyrazol-5-yl)-1,7-naphthyridine], the pIC50 was 8.18.

For `C[C@@H]1COCCN1c1cc(C2CCNCC2)c2ccnc(-c3ccn[nH]3)c2n1` [Example 251, 2-[(3R)-3-methylmorpholin-4-yl]-4-(piperidin-4-yl)-8-(1H-pyrazol-5-yl)-1,7-naphthyridine], the pIC50 is 7.56. With `C[C@@H]1COCCN1c1cc(-c2c[nH]nc2C(F)(F)F)c2ccnc(-c3ccn[nH]3)c2n1` [Example 252, 2-[(3R)-3-methylmorpholin-4-yl]-8-(1H-pyrazol-5-yl)-4-[3-(trifluoromethyl)-1H-pyrazol-4-yl]-1,7-naphthyridine], the pIC50 was 8.19. On to `C[C@@H]1COCCN1c1cc(-c2cnn(C3CCC3)c2)c2ccnc(-c3ccn[nH]3)c2n1` [Example 253, 4-(1-cyclobutyl-1H-pyrazol-4-yl)-2-[(3R)-3-methylmorpholin-4-yl]-8-(1H-pyrazol-5-yl)-1,7-naphthyridine], for which the pIC50 is 7.47. Regarding `C[C@@H]1COCCN1c1cc(-c2cnn(C3CC3)c2)c2ccnc(-c3ccn[nH]3)c2n1` [Example 254, 4-(1-cyclopropyl-1H-pyrazol-4-yl)-2-[(3R)-3-methylmorpholin-4-yl]-8-(1H-pyrazol-5-yl)-1,7-naphthyridine], the pIC50 is 7.35. Take `C[C@@H]1COCCN1c1cc(-c2cnn(C(F)F)c2)c2ccnc(-c3ccn[nH]3)c2n1` [Example 256, 4-[1-(difluoromethyl)-1H-pyrazol-4-yl]-2-[(3R)-3-methylmorpholin-4-yl]-8-(1H-pyrazol-5-yl)-1,7-naphthyridine]: the pIC50 was 7.25. Take `C[C@@H]1COCCN1c1cc(-c2cnn(C(C)(C)C)c2)c2ccnc(-c3ccn[nH]3)c2n1` [Example 257, 4-(1-tert-butyl-1H-pyrazol-4-yl)-2-[(3R)-3-methylmorpholin-4-yl]-8-(1H-pyrazol-5-yl)-1,7-naphthyridine]: the pIC50 was 7.23. Consider `Cc1nn(C)c(C)c1-c1cc(N2CCOC[C@H]2C)nc2c(-c3ccn[nH]3)nccc12` [Example 258, 2-[(3R)-3-methylmorpholin-4-yl]-8-(1H-pyrazol-5-yl)-4-(1,3,5-trimethyl-1H-pyrazol-4-yl)-1,7-naphthyridine], for which the pIC50 was 8.12. The figure for `C[C@@H]1COCCN1c1cc(-c2cn(C)nc2C(F)(F)F)c2ccnc(-c3ccn[nH]3)c2n1` [Example 259, 2-[(3R)-3-methylmorpholin-4-yl]-4-[1-methyl-3-(trifluoromethyl)-1H-pyrazol-4-yl]-8-(1H-pyrazol-5-yl)-1,7-naphthyridine] is 7.77; for `C[C@@H]1COCCN1c1cc(-c2cnn(CCO)c2)c2ccnc(-c3ccn[nH]3)c2n1` [Example 260, 2-(4-{2-[(3R)-3-methylmorpholin-4-yl]-8-(1H-pyrazol-5-yl)-1,7-naphthyridin-4-yl}-1H-pyrazol-1-yl)ethanol] it is 7.55.

For the molecule `CCn1cc(-c2cc(N3CCOC[C@H]3C)nc3c(-c4ccn[nH]4)nccc23)cn1` [Example 261, 4-(1-ethyl-1H-pyrazol-4-yl)-2-[(3R)-3-methylmorpholin-4-yl]-8-(1H-pyrazol-5-yl)-1,7-naphthyridine], the pIC50 is 7.53.

Take `C[C@@H]1COCCN1c1cc(-c2ccn(C)c2)c2ccnc(-c3ccn[nH]3)c2n1` [Example 262, 2-[(3R)-3-methylmorpholin-4-yl]-4-(1-methyl-1H-pyrrol-3-yl)-8-(1H-pyrazol-5-yl)-1,7-naphthyridine]: the pIC50 was 7.37.

For the molecule `CC(C)n1ccc(-c2cc(N3CCOC[C@H]3C)nc3c(-c4ccn[nH]4)nccc23)n1` [Example 263, 2-[(3R)-3-methylmorpholin-4-yl]-4-[1-(propan-2-yl)-1H-pyrazol-3-yl]-8-(1H-pyrazol-5-yl)-1,7-naphthyridine], the pIC50 was 7.71. The value for `Cc1cc(-c2cc(N3CCOC[C@H]3C)nc3c(-c4ccn[nH]4)nccc23)c(C)n1C` [Example 264, 2-[(3R)-3-methylmorpholin-4-yl]-8-(1H-pyrazol-5-yl)-4-(1,2,5-trimethyl-1H-pyrrol-3-yl)-1,7-naphthyridine] was 7.59. The figure for `Cc1n[nH]cc1-c1cc(N2CCOC[C@H]2C)nc2c(-c3ccn[nH]3)nccc12` [Example 266, 2-[(3R)-3-methylmorpholin-4-yl]-4-(3-methyl-1H-pyrazol-4-yl)-8-(1H-pyrazol-5-yl)-1,7-naphthyridine] is 8.08; for `C[C@@H]1COCCN1c1cc(N)c2ccnc(-c3ccn[nH]3)c2n1` [Example 267, 2-[(3R)-3-methylmorpholin-4-yl]-8-(1H-pyrazol-5-yl)-1,7-naphthyridin-4-amine] it is 6.00. Take `CC(C)Cn1cc(-c2cc(N3CCOC[C@H]3C)nc3c(-c4ccn[nH]4)nccc23)cn1` [Example 268, 2-[(3R)-3-methylmorpholin-4-yl]-4-[1-(2-methylpropyl)-1H-pyrazol-4-yl]-8-(1H-pyrazol-5-yl)-1,7-naphthyridine]: the pIC50 is 7.71.

Consider `C[C@@H]1COCCN1c1cc(-c2cn[nH]c2)c2ccnc(-c3ccn[nH]3)c2n1` [Example 269, 2-[(3R)-3-methylmorpholin-4-yl]-4-(1H-pyrazol-4-yl)-8-(1H-pyrazol-5-yl)-1,7-naphthyridine], for which the pIC50 is 7.90. The value for `C[C@@H]1COCCN1c1cc(-c2ncco2)c2ccnc(-c3ccn[nH]3)c2n1` [Example 270, 2-[(3R)-3-methylmorpholin-4-yl]-4-(1,3-oxazol-2-yl)-8-(1H-pyrazol-5-yl)-1,7-naphthyridine] was 7.47; that for `Cc1nn(C)cc1-c1cc(N2CCOCC2)nc2c(-c3ccn[nH]3)nccc12` [Example 271, 4-(1,3-dimethyl-1H-pyrazol-4-yl)-2-(morpholin-4-yl)-8-(1H-pyrazol-5-yl)-1,7-naphthyridine] was 7.38. The figure for `Cc1nn(C)c(C)c1-c1cc(N2CCOCC2)nc2c(-c3ccn[nH]3)nccc12` [Example 273, 2-(morpholin-4-yl)-8-(1H-pyrazol-5-yl)-4-(1,3,5-trimethyl-1H-pyrazol-4-yl)-1,7-naphthyridine] is 7.85; for `COCCS(C)(=O)=Nc1cc(N2CCOC[C@H]2C)nc2c(-c3ccn[nH]3)nccc12` (stereo partly drawn) [Example 274, 4-{[(2-methoxyethyl)(methyl)oxido-λ^6-sulfanylidene]amino}-2-[(3R)-3-methylmorpholin-4-yl]-8-(1H-pyrazol-5-yl)-1,7-naphthyridine] it is 7.20; for `C[C@@H]1COCCN1c1cc(N=S(C)(=O)c2ccccc2O)c2ccnc(-c3ccn[nH]3)c2n1` (stereo partly drawn) [Example 276, 2-(methyl-N-{2-[(3R)-3-methylmorpholin-4-yl]-8-(1H-pyrazol-5-yl)-1,7-naphthyridin-4-yl}sulfonimidoyl)phenol] it is 6.63. Consider `C[C@@H]1COCCN1c1cc(N=S(C)(=O)c2ccc(Br)cc2)c2ccnc(-c3ccn[nH]3)c2n1` (stereo partly shown) [Example 277], for which the pIC50 was 7.11.

Regarding `C[C@@H]1COCCN1c1cc(N=S(C)(=O)C(C)(C)C)c2ccnc(-c3ccn[nH]3)c2n1` (stereo partly drawn) [Example 278, 4-{[tert-butyl(methyl)oxido-λ^6-sulfanylidene]amino}-2-[(3R)-3-methylmorpholin-4-yl]-8-(1H-pyrazol-5-yl)-1,7-naphthyridine], the pIC50 is 7.57. `O=S1(=Nc2cc(N3CCOCC3)nc3c(-c4ccn[nH]4)nccc23)CCOCC1` [Example 279, formic acid - N-[2-(morpholin-4-yl)-8-(1H-pyrazol-5-yl)-1,7-naphthyridin-4-yI]-1,4k4-oxathian-4-imine 4-oxide (1:1)]: the pIC50 is 6.53. Take `O=S1(=Nc2cc(N3CCOCC3)nc3c(-c4ccn[nH]4)nccc23)CCCCC1` [Example 280, N-[2-(morpholin-4-yl)-8-(1H-pyrazol-5-yl)-1,7-naphthyridin-4-yl]hexahydro-1λ^4-thiopyran-1-imine 1-oxide]: the pIC50 was 7.33.
